This assay addresses human TLR2 (Homo sapiens (Human), UniProt O60603). Kind of assay: human TLR2-specific NF-κB reporter gene assay (HEK-Blue cells). In kind it is cell-based. The note with it: for absolute magnitude of TLR2-induced NF-κB activation: hTLR2, FIG. 1. The source says:
The induction of NF-κB in a TLR2-specific reporter gene assay was quantified using HEK-BLUE™ cells as previously described (Wu, W. et al., J. Med. Chem. 2010, 53, 3198-3213). HEK293 cells stably transfected with either human TLR2 or murine TLR2 and alkaline phosphatase (sAP) were obtained from InvivoGen (San Diego, Calif.), and were maintained in HEK-BLUE™ Selection medium containing zeocin and normocin. Stable expression of secreted alkaline phosphatase (sAP) under control of NF-κB promoters is inducible by TLR2 agonists, and extracellular sAP in the supernatant is proportional to NF-κB induction. HEK-Blue cells were incubated at a density of ˜10^5 cells/mL in a volume of 80 μL/well, in 384-well, flat-bottomed, cell culture-treated microtiter plates until confluency was achieved, and then stimulated with serially-diluted aliquots of compounds for 12 h. sAP was assayed spectrophoto-metrically using an alkaline phosphatase-specific chromogen (present in the HEK-detection medium as supplied by the vendor) at 620 nm. For antagonism assays, HEK-Blue cells were incubated at a density of ˜10^5 cells/mL in a volume of 80 μL/well and stimulated with either PAM2CS (1 μg/mL) or lipoteichoic acid (1 μg/mL) in the presence of graded concentrations of the test compounds as described for TLR7 previously (Shukla, N. M.; et al., Bioorg. Med. Chem. Lett. 2009, 19, 2211-2214; Shukla, N. M. et al., Bioorg. Med. Chem. 2011, 19, 3801-3811).
(In general: A reporter such as luciferase makes a cellular process visible.)

The mark [1] stands for this setting: human TLR2-specific reporter gene assay, ND = no activity detected at 10 μM, read-out: TLR2-Agonistic Activity (EC50 in nM).

From patent US9676818B2, “Toll-like receptor 2-agonistic lipopeptides, and method of making the same” (University of Kansas, priority 2013, dated 2017) come the findings set out here.

Like-named read-outs stand apart in the source and are kept apart here.

Chain of human TLR2 (O60603 21-784): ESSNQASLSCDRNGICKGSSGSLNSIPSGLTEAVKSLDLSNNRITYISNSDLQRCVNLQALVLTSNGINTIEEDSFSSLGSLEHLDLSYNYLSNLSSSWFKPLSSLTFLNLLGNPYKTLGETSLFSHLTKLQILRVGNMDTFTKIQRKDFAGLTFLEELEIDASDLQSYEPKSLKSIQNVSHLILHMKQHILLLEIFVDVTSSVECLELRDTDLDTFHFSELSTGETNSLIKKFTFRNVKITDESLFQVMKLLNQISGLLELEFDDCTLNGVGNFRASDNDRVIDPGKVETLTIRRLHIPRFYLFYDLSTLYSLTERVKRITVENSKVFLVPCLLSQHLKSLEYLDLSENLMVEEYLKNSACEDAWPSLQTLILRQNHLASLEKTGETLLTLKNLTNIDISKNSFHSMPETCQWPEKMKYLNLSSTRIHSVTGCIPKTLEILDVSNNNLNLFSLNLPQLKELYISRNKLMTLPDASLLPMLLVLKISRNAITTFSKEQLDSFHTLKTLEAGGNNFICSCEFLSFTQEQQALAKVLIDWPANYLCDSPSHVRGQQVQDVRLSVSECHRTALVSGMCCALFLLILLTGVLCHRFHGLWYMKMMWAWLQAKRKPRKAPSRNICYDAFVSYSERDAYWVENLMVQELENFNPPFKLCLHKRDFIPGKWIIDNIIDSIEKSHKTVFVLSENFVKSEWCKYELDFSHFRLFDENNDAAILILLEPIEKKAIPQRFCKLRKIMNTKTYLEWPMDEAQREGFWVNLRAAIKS

Usually EC50 stands for the concentration at which the effect is half-maximal. With `CCCC(=O)OCCSC[C@H](N)C(=O)N[C@@H](CO)C(=O)OC` [Compound 6a, 2-(((R)-2-Amino-3-(((S)-3-Hydroxy-1-Methoxy-1-oxopropan-2-yl)amino)-3-oxopropyl)thio)ethyl butyrate], the EC50 under setting [1] was more than 10000 nM. On the same count and under the same terms, the result for `CCCCCCCC(=O)OCCSC[C@H](N)C(=O)N[C@@H](CO)C(=O)OC` [Compound 6b, 2-(((R)-2-amino-3-(((S)-3-hydroxy-1-methoxy-1-oxopropan-2-yl)amino)-3-oxopropyl)thio)ethyl octanoate] reads more than 10000 nM; that for `CCCCCCCCCCCC(=O)OCCSC[C@H](N)C(=O)N[C@@H](CO)C(=O)OC` [Compound 6c, 2-(((R)-2-amino-3-(((S)-3-hydroxy-1-methoxy-1-oxopropan-2-yl)amino)-3-oxopropyl)thio)ethyl dodecanoate], more than 10000 nM.

As for `COC(=O)[C@H](CO)NC(=O)[C@@H](N)CSCCOC(=O)c1ccc(-c2ccccc2)cc1` [Compound 6f, 2-(((R)-2-amino-3-(((S)-3-hydroxy-1-methoxy-1-oxopropan-2-yl)amino)-3-oxopropyl)thio)ethyl[1,1′-biphenyl]-4-carboxylate], the “hTLR2-agonistic activity in words” value (hTLR2 reporter gene assay) is reported as “complete absence of activity”. Also, under setting [1], the EC50 was more than 10000 nM. For `COC(=O)[C@H](CO)NC(=O)[C@@H](N)CSCCOC(=O)c1cccc(-c2ccccc2)c1` [Compound 6g, 2-(((R)-2-amino-3-(((S)-3-hydroxy-1-methoxy-1-oxopropan-2-yl)amino)-3-oxopropyl)thio)ethyl[1,1′-biphenyl]-3-carboxylate] the same measures were “complete absence of activity” and more than 10000 nM. Turning to `COC(=O)[C@H](CO)NC(=O)[C@@H](N)CSCCOC(=O)c1ccc(-c2ccc(-c3ccccc3)cc2)cc1` [Compound 6h], for the setting “hTLR2 reporter gene assay”, the “hTLR2-agonistic activity in words” value was “complete absence of activity”. Regarding `CCCCCCCCCCCCCCN(CCCCCCCCCCCCCC)CC(=O)OCCSC[C@H](N)C(=O)N[C@@H](CO)C(=O)OC` [Compound 10a, (S)-methyl 2-((R)-2-amino-3-((2-(2-(ditetradecylamino)acetoxy)ethyl)thio)propan-amido)-3-hydroxypropanoate], where the note is “hTLR2 reporter gene assay”, the “hTLR2-agonistic activity in words” value was “completely inactive”. Moreover, the EC50 under setting [1] was more than 10000 nM. For `CCCCCCCCCCCCCCNCC(=O)OCCSC[C@H](N)C(=O)N[C@@H](CO)C(=O)OC` [Compound 10b, (S)-methyl 2-((R)-2-amino-3-((2-(2-(tetradecylamino)acetoxy)ethyl)thio)propanamido)-3-hydroxypropanoate] the same measures were “completely inactive” and more than 10000 nM. In the case of `CCCCCCCCCCCCCCCC(=O)OCCSC[C@H](NCC)C(=O)N[C@@H](CO)C(=O)OC` [Compound 11a, 2-(((R)-2-(ethylamino)-3-(((S)-3-hydroxy-1-methoxy-1-oxopropan-2-yl)amino)-3-oxopropyl)thio)ethyl palmitate], for the setting “hTLR2 reporter gene assay”, the “hTLR2-agonistic activity in words” value was “inactive”. The EC50 under setting [1] is more than 10000 nM.

For `CCCCCCCCCCCCCCCC(=O)OCCSC[C@H](NCCCCCCCC)C(=O)N[C@@H](CO)C(=O)OC` [Compound 11b, 2-(((R)-3-(((S)-3-hydroxy-1-methoxy-1-oxopropan-2-yl)amino)-2-(octylamino)-3-oxopropyl)thio)ethyl palmitate], where the note is “hTLR2 reporter gene assay”, the “hTLR2-agonistic activity in words” value is “inactive”. The EC50 under setting [1] was more than 10000 nM. For `CCCCCCCCCCCCCCCCN[C@@H](CSCCOC(=O)CCCCCCCCCCCCCCC)C(=O)N[C@@H](CO)C(=O)OC` [Compound 11c, 2-(((R)-2-(hexadecylamino)-3-(((S)-3-hydroxy-1-methoxy-1-oxopropan-2-yl)amino)-3-oxopropyl)thio)ethyl palmitate] the same measures were “inactive” and more than 10000 nM. Consider `CCCCCCCCCCCCCCCC(=O)OCCSC[C@H](NC(C)=O)C(=O)N[C@@H](CO)C(=O)OC` [Compound 11d, 2-(((R)-2-acetamido-3-(((S)-3-hydroxy-1-methoxy-1-oxopropan-2-yl)amino)-3-oxopropyl)thio)ethyl palmitate], for which the “absolute magnitude of TLR2-induced NF-κB activation” value is recorded as “far greater”. The EC50 under setting [1] came out at 1.01 nM.

As for `CCCCCCCCCCCCCCCC(=O)OCCSC[C@H](NC(=O)CCC)C(=O)N[C@@H](CO)C(=O)OC` [Compound 11e, 2-(((R)-2-butyramido-3-(((S)-3-hydroxy-1-methoxy-1-oxopropan-2-yl)amino)-3-oxopropyl)thio)ethyl palmitate], the EC50 under setting [1] amounted to 1.64 nM.

For `CCCCCCCCCCCCCCCC(=O)OCCSC[C@H](NC(=O)CCCCCCC)C(=O)N[C@@H](CO)C(=O)OC` [Compound 11f, 2-(((R)-3-(((S)-3-hydroxy-1-methoxy-1-oxopropan-2-yl)amino)-2-octanamido-3-oxopropyl)thio)ethyl palmitate], the EC50 under setting [1] amounted to 3.8 nM.

As to `CCCCCCCCCCCCCCCC(=O)N[C@@H](CSCCOC(=O)CCCCCCCCCCCCCCC)C(=O)N[C@@H](CO)C(=O)OC` [Compound 11g, 2-(((R)-3-(((S)-3-hydroxy-1-methoxy-1-oxopropan-2-yl)amino)-3-oxo-2-palmitamidopropyl)thio)ethyl palmitate], under “hTLR2 reporter gene assay”, the “hTLR2-agonistic activity in words” value is recorded as “complete loss of activity”. Also, the EC50 under setting [1] is more than 10000 nM. As to `CCCCCCCCCCCCCCCC(=O)OCCSC[C@H](NC(=O)C(F)(F)F)C(=O)N[C@@H](CO)C(=O)OC` [Compound 11h, 2-(((R)-3-(((S)-3-hydroxy-1-methoxy-1-oxopropan-2-yl)amino)-3-oxo-2-(2,2,2-trifluoro-acetamido)propyl)thio)ethyl palmitate], the “absolute magnitude of TLR2-induced NF-κB activation” value was “low magnitude”. Moreover, the EC50 (hTLR2 reporter gene assay, read-out: EC50 in engaging hTLR2) worked out at 4.5 nM. As to `CCCCCCCCCCCCCCCC(=O)OCCSC[C@H](NC(=O)C(Cl)(Cl)Cl)C(=O)N[C@@H](CO)C(=O)OC` [Compound 11i, 2-(((R)-3-(((S)-3-hydroxy-1-methoxy-1-oxopropan-2-yl)amino)-3-oxo-2-(2,2,2-trichloroacetamido)propyl)thio)ethyl palmitate], the “hTLR2-agonistic activity in words” value (hTLR2 reporter gene assay) is “inactive”. For the same compound, under setting [1], the EC50 is more than 10000 nM. For `CCCCCCCCCCCCCCCC(=O)OCCSC[C@H](NS(C)(=O)=O)C(=O)N[C@@H](CO)C(=O)OC` [Compound 11j, 2-(((R)-3-(((S)-3-hydroxy-1-methoxy-1-oxopropan-2-yl)amino)-2-(methylsulfonamido)-3-oxo-propyl)thio)ethyl palmitate] the same measures were “inactive” and more than 10000 nM.

For `CCCCCCCCCCCCCCCC(=O)OCCSC[C@H](NS(=O)(=O)C(F)(F)F)C(=O)N[C@@H](CO)C(=O)OC` [Compound 11k, 2-(((R)-3-(((S)-3-hydroxy-1-methoxy-1-oxopropan-2-yl)amino)-3-oxo-2-(trifluoromethyl-sulfonamido)propyl)thio)ethyl palmitate], for the setting “hTLR2 reporter gene assay”, the “hTLR2-agonistic activity in words” value was “inactive”. For the same compound, the EC50 under setting [1] was more than 10000 nM. For `CCCCCCCCCCCCCCCC(=O)OCCSC[C@H](NS(=O)(=O)c1ccc(C)cc1)C(=O)N[C@@H](CO)C(=O)OC` [Compound 11l, 2-(((R)-3-(((S)-3-hydroxy-1-methoxy-1-oxopropan-2-yl)amino)-2-(4-methylphenylsulfonamido)-3-oxopropyl)thio)ethyl palmitate] the same measures were “inactive” and more than 10000 nM. For `CCCCCCCCCCCCCCCC(=O)OCCSC[C@H](N)C(=O)N[C@@H](COC(C)=O)C(=O)OC` [Compound 14a, 2-(((R)-3-(((S)-3-acetoxy-1-methoxy-1-oxopropan-2-yl)amino)-2-amino-3-oxopropyl)thio)ethyl palmitate] the same measures were “virtually indistinguishable from that of 6d” and 2.97 nM. For the compound `CCCCCCCCCCCCCCCC(=O)OCCSC[C@H](N)C(=O)N[C@@H](COC(=O)CCC)C(=O)OC` [Compound 14b, 2-(((R)-2-amino-3-(((S)-3-(butyryloxy)-1-methoxy-1-oxopropan-2-yl)amino)-3-oxopropyl)thio)ethyl palmitate], the EC50 under setting [1] was 5.47 nM. As to `CCCCCCCCCCCCCCCC(=O)OCCSC[C@H](N)C(=O)N[C@@H](COC(=O)CCCCCCCCCCCCCCC)C(=O)OC` [Compound 14c, 2-(((R)-2-amino-3-(((S)-1-methoxy-1-oxo-3-(palmitoyloxy)propan-2-yl)amino)-3-oxopropyl)thio)ethyl palmitate], the EC50 under setting [1] amounted to 5.95 nM. In the case of `CCCCCCCCCCCCCCCC(=O)OCCCSC[C@H](N)C(=O)N[C@@H](CO)C(=O)OC` [Compound 15, 3-((R)-2-amino-3-((S)-3-hydroxy-1-methoxy-1-oxopropan-2-ylamino)-3-oxopropylthio)propyl palmitate], for the setting “hTLR2 reporter gene assay”, the “hTLR2-agonistic activity in words” value is “inactive”. Also, the EC50 under setting [1] was more than 10000 nM.
